Measured values: paper PMC7129916 (Clinical Microbiology and Infection, 2015)
Converted amounts (≈) assume the structure as drawn. Where two headings read alike, the source gives them in different places.

Experiments:
group B streptococci = format: cell-based
M. catarrhalis (Mc) = assay: microbe, parasite or virus in culture; format: cell-based; details: Moraxella catarrhalis
S. pneumoniae (Sp) = assay: microbe, parasite or virus in culture; format: cell-based; details: Streptococcus pneumoniae
H. influenzae (Hi) = assay: microbe, parasite or virus in culture; format: cell-based; details: Haemophilus influenzae
S. pneumoniae [1] = tested on: S. pneumoniae
[2] = tested on: beta1-integrin in human tendon cells
H. influenzae = assay: microbe, parasite or virus in culture; format: cell-based
S. pneumoniae [3] = assay: microbe, parasite or virus in culture; format: cell-based; details: for susceptible (%): DIN breakpoints
[4] = tested on: viridans group streptococci; assay: organism not typed; format: cell-based
M. catarrhalis [5] = assay: microbe, parasite or virus in culture; format: cell-based; details: Moraxella catarrhalis
[6] = tested on: S. pneumoniae with reduced susceptibility to ciprofloxacin; assay: microbe, parasite or virus in culture; format: cell-based
[7] = tested on: viridans Streptococci (S. mitis, S. oralis); format: cell-based; details: susceptible strains, salivary concentrations
M. catarrhalis [8] = assay: microbe, parasite or virus in culture; format: cell-based
invasive GAS isolates = format: cell-based, S. pyogenes
[9] = format: in vivo, human; details: after 6 months

| Compound | susceptibility of all strains (group B streptococci) | MIC50 (M. catarrhalis (Mc)) | MIC90 (M. catarrhalis (Mc)) | MIC90 (S. pneumoniae (Sp)) | %I (S. pneumoniae [1]; 2002 (n = 103)) | %S (S. pneumoniae [1]; 2002 (n = 103)) | %I (S. pneumoniae [1]; 2003 (n = 137)) | %R (S. pneumoniae [1]; 2003 (n = 137)) | %S (S. pneumoniae [1]; 2003 (n = 137)) | %I (S. pneumoniae [1]; 2004 (n = 110)) | %R (S. pneumoniae [1]; 2004 (n = 110)) | %S (S. pneumoniae [1]; 2004 (n = 110)) | also measured |
| --- | --- | --- | --- | --- | --- | --- | --- | --- | --- | --- | --- | --- | --- |
| CC1(C)S[C@@H]2[C@H](NC(=O)[C@H](N)c3ccccc3)C(=O)N2[C@H]1C(=O)O [ampicillin] | susceptible | 1 µg/mL (≈ 2.86 µM) | 4 µg/mL (≈ 11.4 µM) | 0.25 µg/mL (≈ 0.715 µM) | – | – | – | – | – | – | – | – | MIC50 (H. influenzae (Hi)): 0.5 µg/mL (≈ 1.43 µM) |
| CO/N=C(\C(=O)N[C@@H]1C(=O)N2C(C(=O)O)=C(COC(C)=O)CS[C@H]12)c1csc(N)n1 [cefotaxime] | – | – | – | – | 3.8% | 95.2% | 4.4% | 0.6% | 95% | 3.8% | 0% | 96.2% | %R (S. pneumoniae [1]; 2002 (n = 103)): 1% |
| CO/N=C(\C(=O)N[C@@H]1C(=O)N2C(C(=O)O)=C(CSc3nc(=O)c(=O)[nH]n3C)CS[C@H]12)c1csc(N)n1 [ceftriaxone] | – | 0.5 µg/mL (≈ 0.902 µM) | 1 µg/mL (≈ 1.8 µM) | 0.25 µg/mL (≈ 0.451 µM) | – | – | – | – | – | – | – | – | MIC50 (S. pneumoniae (Sp)): 0.03 µg/mL (≈ 0.0541 µM); MIC90 (H. influenzae (Hi)): 0.03 µg/mL (≈ 0.0541 µM) |
| CO/N=C(\C(=O)N[C@@H]1C(=O)N2C(C(=O)O)=C(COC(N)=O)CS[C@H]12)c1ccco1 [cefuroxime] | – | 1 µg/mL (≈ 2.36 µM) | – | 1 µg/mL (≈ 2.36 µM) | – | – | – | – | – | – | – | – | MIC50 (H. influenzae (Hi)): 1 µg/mL (≈ 2.36 µM) |
| O=C(O)c1cn(C2CC2)c2cc(N3CCNCC3)c(F)cc2c1=O [ciprofloxacin] | – | 0.06 µg/mL (≈ 0.181 µM) | 0.06 µg/mL (≈ 0.181 µM) | 2 µg/mL (≈ 6.04 µM) | – | – | – | – | – | – | – | – | MIC50 (S. pneumoniae (Sp)): 1 µg/mL (≈ 3.02 µM); amount of beta1-integrin vs untreated control [2]: significant decrease |
| CC[C@H]1OC(=O)[C@H](C)[C@@H](O[C@H]2C[C@@](C)(OC)[C@@H](O)[C@H](C)O2)[C@H](C)[C@@H](O[C@@H]2O[C@H](C)C[C@H](N(C)C)[C@H]2O)[C@](C)(OC)C[C@@H](C)C(=O)[C@H](C)[C@@H](O)[C@]1(C)O [clarithromycin] | – | – | – | – | 0% | 58.8% | 0% | 38.7% | 61.3% | 1% | 34.5% | 64.5% | susceptible (%) (H. influenzae): 4.5%; susceptible (%) (S. pneumoniae [3]): 85.7% |
| C[C@H]1c2cccc(O)c2C(=O)C2=C(O)[C@]3(O)C(=O)C(C(N)=O)=C(O)[C@@H](N(C)C)[C@@H]3[C@@H](O)[C@@H]21 [doxycycline] | – | – | 0.25 µg/mL (≈ 0.563 µM) | 8 µg/mL (≈ 18 µM) | – | – | – | – | – | – | – | – | – |
| CC[C@H]1OC(=O)[C@H](C)[C@@H](O[C@H]2C[C@@](C)(OC)[C@@H](O)[C@H](C)O2)[C@H](C)[C@@H](O[C@@H]2O[C@H](C)C[C@H](N(C)C)[C@H]2O)[C@](C)(O)C[C@@H](C)C(=O)[C@H](C)[C@@H](O)[C@]1(C)O [erythromycin] | – | – | – | – | 0% | 56.9% | 1.4% | 38.8% | 59.8% | 0% | 35.5% | 64.5% | %R (S. pneumoniae [1]; 2002 (n = 103)): 43.1%; MIC ([4]; S. sanguis mef(A)): 4 µg/mL (≈ 5.45 µM) |
| CO/N=C1\CN(c2nc3c(cc2F)c(=O)c(C(=O)O)cn3C2CC2)CC1CN (stereo not drawn) [gemifloxacin] | – | – | – | – | – | – | – | – | – | – | – | – | MIC50 (M. catarrhalis [5]): ≤ 0.12 µg/mL |
| C[C@H]1COc2c(N3CCN(C)CC3)c(F)cc3c(=O)c(C(=O)O)cn1c23 [levofloxacin] | susceptible | 0.03 µg/mL (≈ 0.083 µM) | 0.06 µg/mL (≈ 0.166 µM) | 1 µg/mL (≈ 2.77 µM) | 3% | 96% | 0.7% | 1.5% | 97.8% | 0% | 0% | 100% | MIC50 (S. pneumoniae (Sp)): 1 µg/mL (≈ 2.77 µM); MIC50 ([6]; Streptococcus pneumoniae): 0.5 µg/mL (≈ 1.38 µM); MIC90 ([6]; Streptococcus pneumoniae): 1 µg/mL (≈ 2.77 µM); MIC90 ([6]; ciprofloxacin MIC ≥8 mg/L): 8; %R (S. pneumoniae [1]; 2002 (n = 103)): 1%; MIC50 (H. influenzae (Hi)): 0.03 µg/mL (≈ 0.083 µM); MIC90 (H. influenzae (Hi)): 0.03 µg/mL (≈ 0.083 µM); MIC50 (M. catarrhalis [5]): ≤ 0.03 µg/mL; MIC (M. catarrhalis [5]; read-out: MIC 10» (second value)): 1 µg/mL (≈ 2.77 µM); amount of beta1-integrin vs untreated control ([2]; 3 mg/l, 1-4 days): no effect; MIC90 (S. pneumoniae [3]; n = 426): 1 µg/mL (≈ 2.77 µM); time to eradication [7]: 12 to 24 h |
| CC(=O)NC[C@H]1CN(c2ccc(N3CCOCC3)c(F)c2)C(=O)O1 [linezolid] | – | – | – | – | – | – | – | – | – | – | – | – | %I (S. pneumoniae [1]): 0%; %R (S. pneumoniae [1]): 0%; %S (S. pneumoniae [1]): 100%; MIC [4]: 0.5 µg/mL (≈ 1.48 µM) |
| CC1(C)S[C@@H]2[C@H](NC(=O)Cc3ccccc3)C(=O)N2[C@H]1C(=O)O [penicillin] | susceptible | 64 µg/mL (≈ 191 µM) | 64 µg/mL (≈ 191 µM) | 0.5 µg/mL (≈ 1.5 µM) | 31.1% | 46.6% | 55.5% | 5% | 39.5% | 30% | 11% | 59% | susceptible (%) (M. catarrhalis [8]): 9.8%; MIC50 (S. pneumoniae (Sp)): 0.03 µg/mL (≈ 0.0897 µM); %R (S. pneumoniae [1]; 2002 (n = 103)): 22.3%; MIC50 (H. influenzae (Hi)): 1 µg/mL (≈ 2.99 µM); MIC90 (H. influenzae (Hi)): 64 µg/mL (≈ 191 µM); susceptible (%) (H. influenzae): 1.0%; susceptible (%) (S. pneumoniae [3]): 93.3% |
| CN(C)[C@@H]1C(O)=C(C(N)=O)C(=O)[C@@]2(O)C(O)=C3C(=O)c4c(O)cccc4[C@@](C)(O)[C@H]3C[C@@H]12 [tetracycline] | – | – | – | – | – | – | – | – | – | – | – | – | resistant isolates (invasive GAS isolates): 50%; mean per cent reduction, inflammatory lesions [9]: 56%; mean per cent reduction, non-inflammatory lesions [9]: 45% |
| CN[C@H](CC(C)C)C(=O)N[C@H]1C(=O)N[C@@H](CC(N)=O)C(=O)N[C@H]2C(=O)N[C@H]3C(=O)N[C@H](C(=O)N[C@H](C(=O)O)c4cc(O)cc(O)c4-c4cc3ccc4O)[C@H](O)c3ccc(c(Cl)c3)Oc3cc2cc(c3O[C@@H]2O[C@H](CO)[C@@H](O)[C@H](O)[C@H]2O[C@H]2C[C@](C)(N)[C@H](O)[C@H](C)O2)Oc2ccc(cc2Cl)[C@H]1O [vancomycin] | susceptible | – | – | – | – | – | – | – | – | – | – | – | %I (S. pneumoniae [1]): 0%; %R (S. pneumoniae [1]): 0%; %S (S. pneumoniae [1]): 100% |
| Quinupristin-Dalfopristin | – | – | – | – | 5.8% | 94.2% | 0% | 0% | 100% | 1% | 0% | 99% | %R (S. pneumoniae [1]; 2002 (n = 103)): 0% |
| amoxicillin/clavulanate | – | – | – | – | – | – | – | – | – | – | – | – | susceptible (%) (M. catarrhalis [8]): 99.1%; susceptible (%) (H. influenzae): 87.9% |
| quinupristin/dalfopristin | susceptible | – | – | – | – | – | – | – | – | – | – | – | – |
| teicoplanin | susceptible | – | – | – | – | – | – | – | – | – | – | – | – |
